We go through 23 molecules from patent US20260151383A1, “HETEROCYCLIC COMPOUNDS AND USES THEREOF” (KayoThera Inc., priority 2022, published 2026).

Holding throughout (format): biochemical
What all share (details): recombinant enzyme, 20° C., activity level classes

One assay has as its target T1, hALDH1a2 (Homo sapiens, UniProt O94788).
T1 construct: made in house; host or cells: E. coli BL21-DE3
T1 sequence (O94788 1-518): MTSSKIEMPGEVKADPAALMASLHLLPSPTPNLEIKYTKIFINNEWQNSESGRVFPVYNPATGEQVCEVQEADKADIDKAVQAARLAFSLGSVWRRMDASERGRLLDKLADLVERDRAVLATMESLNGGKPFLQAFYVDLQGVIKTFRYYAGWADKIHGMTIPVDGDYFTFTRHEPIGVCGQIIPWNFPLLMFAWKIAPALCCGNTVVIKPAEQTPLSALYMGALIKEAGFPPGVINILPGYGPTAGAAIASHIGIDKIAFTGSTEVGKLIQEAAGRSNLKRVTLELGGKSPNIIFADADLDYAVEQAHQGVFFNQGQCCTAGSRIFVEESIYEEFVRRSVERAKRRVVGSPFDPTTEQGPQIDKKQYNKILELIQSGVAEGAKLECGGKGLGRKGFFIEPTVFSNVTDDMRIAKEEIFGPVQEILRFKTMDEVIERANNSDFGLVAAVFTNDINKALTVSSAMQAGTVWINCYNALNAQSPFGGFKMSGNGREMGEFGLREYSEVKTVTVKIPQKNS
Kind of assay: Aldh1a2 enzyme inhibition assay (resorufin fluorescence), human enzyme. The source says: (§1) Recombinant enzyme and inhibitor added immediately before assay. Reaction rate measured by resorufln fluorescence.

The target of a further assay is T2, hALDH1a3 (Homo sapiens, UniProt P47895).
T2 construct: made in house; host or cells: E. coli BL21-DE3
T2 sequence (P47895 1-512): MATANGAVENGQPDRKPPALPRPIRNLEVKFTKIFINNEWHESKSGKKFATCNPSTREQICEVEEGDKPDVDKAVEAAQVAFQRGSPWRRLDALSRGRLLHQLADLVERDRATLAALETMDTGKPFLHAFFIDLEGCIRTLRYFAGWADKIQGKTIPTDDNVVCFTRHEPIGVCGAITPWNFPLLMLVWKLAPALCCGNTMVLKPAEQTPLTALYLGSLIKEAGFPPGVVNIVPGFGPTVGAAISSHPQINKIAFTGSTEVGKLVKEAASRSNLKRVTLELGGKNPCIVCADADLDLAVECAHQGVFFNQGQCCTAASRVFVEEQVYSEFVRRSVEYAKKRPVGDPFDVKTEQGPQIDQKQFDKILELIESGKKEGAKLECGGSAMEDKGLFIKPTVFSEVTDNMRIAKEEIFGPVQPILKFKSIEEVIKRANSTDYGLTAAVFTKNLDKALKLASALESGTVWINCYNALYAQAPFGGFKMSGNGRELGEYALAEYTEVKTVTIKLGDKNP
The assay can be described thus: Aldh1a3 enzyme inhibition assay (resorufin fluorescence), human enzyme.

Another assay deals with T3, mALDH1a2 (Mus musculus, UniProt Q62148).
T3 construct: made in house; host or cells: E. coli BL21-DE3
T3 sequence (Q62148 1-518): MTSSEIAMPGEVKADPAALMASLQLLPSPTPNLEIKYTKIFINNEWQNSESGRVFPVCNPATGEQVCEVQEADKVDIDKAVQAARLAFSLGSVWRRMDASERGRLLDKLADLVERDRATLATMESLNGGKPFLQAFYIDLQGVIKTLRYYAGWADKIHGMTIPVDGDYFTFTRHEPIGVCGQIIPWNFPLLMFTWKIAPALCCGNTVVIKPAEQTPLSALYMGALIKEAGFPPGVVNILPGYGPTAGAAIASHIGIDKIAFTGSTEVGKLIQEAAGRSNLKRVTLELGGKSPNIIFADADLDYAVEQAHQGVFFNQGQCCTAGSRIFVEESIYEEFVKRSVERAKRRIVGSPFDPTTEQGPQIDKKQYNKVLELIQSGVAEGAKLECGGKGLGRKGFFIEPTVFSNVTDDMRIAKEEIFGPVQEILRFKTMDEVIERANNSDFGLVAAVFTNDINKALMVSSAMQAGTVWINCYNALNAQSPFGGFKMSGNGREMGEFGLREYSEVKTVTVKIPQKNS
Kind of assay: Aldh1a2 enzyme inhibition assay (resorufin fluorescence), mouse enzyme.
Text: as §1

The target in another assay is T4, mALDH1a3 (Mus musculus, UniProt Q9JHW9).
T4 construct: made in house; host or cells: E. coli BL21-DE3
T4 sequence (Q9JHW9 1-512): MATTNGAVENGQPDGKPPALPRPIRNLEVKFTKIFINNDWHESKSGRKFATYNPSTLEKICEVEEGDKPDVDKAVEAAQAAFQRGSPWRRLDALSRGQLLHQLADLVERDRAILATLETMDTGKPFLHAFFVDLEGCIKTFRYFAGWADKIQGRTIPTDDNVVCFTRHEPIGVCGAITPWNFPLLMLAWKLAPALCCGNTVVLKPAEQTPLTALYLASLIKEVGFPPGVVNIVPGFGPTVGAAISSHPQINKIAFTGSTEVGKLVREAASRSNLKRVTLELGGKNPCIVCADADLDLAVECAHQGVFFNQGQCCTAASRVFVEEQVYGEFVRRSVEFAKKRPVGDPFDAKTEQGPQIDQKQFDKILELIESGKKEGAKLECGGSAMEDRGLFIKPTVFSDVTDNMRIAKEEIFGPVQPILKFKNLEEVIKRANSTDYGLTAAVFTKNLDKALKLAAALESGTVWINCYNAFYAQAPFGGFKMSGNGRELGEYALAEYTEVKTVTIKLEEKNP
Kind of assay: Aldh1a3 enzyme inhibition assay (resorufin fluorescence), mouse enzyme. An excerpt: Recombinant enzyme and inhibitor added immediately before assay. Reaction rate measured by resorufin fluorescence.

Usually IC50 stands for the midpoint of a concentration-inhibition curve. As to `Cc1cc(NC(=O)c2ccncc2-c2ccccc2)cc2c1NC(=O)CC2` [Compound 1, N-(8-methyl-2-oxo-1,2,3,4-tetrahydroquinolin-6-yl)-3-phenylisonicotinamide], the IC50 was 100 to 250 nM at hALDH1a2, 1000 to 5000 nM at hALDH1a3, 100 to 250 nM on mALDH1a2 and 1000 to 5000 nM at mALDH1a3.
As to `Cc1cc(NC(=O)c2ccncc2-c2ccccc2F)cc2c1NC(=O)CC2` [Compound 2, 3-(2-fluorophenyl)-N-(8-methyl-2-oxo-1,2,3,4-tetrahydroquinolin-6-yl)isonicotinamide], the values for the IC50 on hALDH1a2, on hALDH1a3 and at mALDH1a2 were 100 to 250 nM, 1000 to 5000 nM and 250 to 1000 nM, respectively. The “mAldh1a3 IC50” value at mALDH1a3 is “No activity”.
In the same order, the values of `Cc1cc(NC(=O)c2ccncc2-c2cccc(F)c2)cc2c1NC(=O)CC2` [Compound 3, 3-(3-fluorophenyl)-N-(8-methyl-2-oxo-1,2,3,4-tetrahydroquinolin-6-yl)isonicotinamide] are 250 to 1000 nM, 1000 to 5000 nM, 250 to 1000 nM and “No activity”.
`Cc1cc(NC(=O)c2scnc2-c2cccc(F)c2)cc2c1NC(=O)CC2` [Compound 4, 4-(3-fluorophenyl)-N-(8-methyl-2-oxo-1,2,3,4-tetrahydroquinolin-6-yl)thiazole-5-carboxamide]: the IC50 at hALDH1a2 lay within 250 to 1000 nM; at hALDH1a3, 100 to 250 nM; at mALDH1a2 it was 250 to 1000 nM; at mALDH1a3, 250 to 1000 nM.
Consider `O=C1CCc2cc(NC(=O)c3scnc3-c3cccc(F)c3)c(F)cc2N1` [Compound 5, N-(7-fluoro-2-oxo-1,2,3,4-tetrahydroquinolin-6-yl)-4-(3-fluorophenyl)thiazole-5-carboxamide], for which the concentration for half-maximal inhibition (IC50) is 1000 to 5000 nM at hALDH1a2, under 100 nM on hALDH1a3, 1000 to 5000 nM on mALDH1a2 and 100 to 250 nM at mALDH1a3.
Take `O=C1CCc2cc(NC(=O)c3scnc3-c3cccc(F)c3)ccc2N1` [Compound 6, 4-(3-fluorophenyl)-N-(2-oxo-1,2,3,4-tetrahydroquinolin-6-yl)thiazole-5-carboxamide]: the IC50 was 1000 to 5000 nM at hALDH1a2, under 100 nM on hALDH1a3, 1000 to 5000 nM on mALDH1a2 and 100 to 250 nM at mALDH1a3.
With `Cc1cc(NC(=O)c2ccncc2CC(F)(F)F)cc2c1NC(=O)CS2` [Compound 7], the IC50 on hALDH1a2 fell in the range of 250 to 1000 nM; on hALDH1a3, 100 to 250 nM; at mALDH1a2, 250 to 1000 nM; at mALDH1a3, 100 to 250 nM.
With `Cc1cc(OCCNC(=O)c2cccc(F)c2)cc2c1NC(=O)CC2` [Compound 8, 3-fluoro-N-(2-((8-methyl-2-oxo-1,2,3,4-tetrahydroquinolin-6-yl)oxy)ethyl)benzamide], the “hAldh1a2 IC50” value at hALDH1a2 was “No activity”. On hALDH1a3, the “hAldh1a3 IC50” value is reported as “No activity”. Moreover, the “mAldh1a2 IC50” value at mALDH1a2 is given as “No activity”. Further, the “mAldh1a3 IC50” value on mALDH1a3 is “No activity”.
Take `Cc1cc(OCCN(C)C(=O)c2cccc(F)c2)cc2c1NC(=O)CC2` [Compound 9, 3-fluoro-N-methyl-N-(2-((8-methyl-2-oxo-1,2,3,4-tetrahydroquinolin-6-yl)oxy)ethyl)benzamide]: the IC50 on hALDH1a2 is 1000 to 5000 nM; on hALDH1a3, over 5000 nM; at mALDH1a2, 1000 to 5000 nM; on mALDH1a3, over 5000 nM.
Consider `Cc1cc(OCCN(C)Cc2cccc(F)c2)cc2c1NC(=O)CC2` [Compound 10], for which the IC50 at hALDH1a2, at hALDH1a3, at mALDH1a2 and on mALDH1a3 was 1000 to 5000 nM in each case.
As for `Cc1cccc(-c2cnccc2C(=O)Nc2cc(C)c3c(c2)CCC(=O)N3)c1` [Compound 11, N-(8-methyl-2-oxo-1,2,3,4-tetrahydroquinolin-6-yl)-3-(m-tolyl)isonicotinamide], the IC50 on hALDH1a2 and at mALDH1a2 was 1000 to 5000 nM throughout. At hALDH1a3, the “hAldh1a3 IC50” value is “No activity”. Moreover, on mALDH1a3, the “mAldh1a3 IC50” value is reported as “No activity”.
As for `Cc1cc(NC(=O)c2ccncc2-c2cccc(C#N)c2)cc2c1NC(=O)CC2` [Compound 12], the half-inhibitory concentration (IC50) on hALDH1a2 is 1000 to 5000 nM; on mALDH1a2, over 5000 nM. For the same molecule, the “hAldh1a3 IC50” value on hALDH1a3 is recorded as “No activity”. The “mAldh1a3 IC50” value on mALDH1a3 is on record as “No activity”.
`Cc1ccc(-c2cnccc2C(=O)Nc2cc(C)c3c(c2)CCC(=O)N3)cc1` [Compound 13]: the IC50 at hALDH1a2 and on mALDH1a2 was over 5000 nM in each case. The “hAldh1a3 IC50” value at hALDH1a3 is “No activity”. The “mAldh1a3 IC50” value on mALDH1a3 is on record as “No activity”.
Regarding `Cc1cc(NC(=O)c2ccncc2-c2ccc(C#N)cc2)cc2c1NC(=O)CC2` [Compound 14], the IC50 at hALDH1a2 and on mALDH1a2 was over 5000 nM each time. In addition, at hALDH1a3, the “hAldh1a3 IC50” value is given as “No activity”. Further, the “mAldh1a3 IC50” value on mALDH1a3 was “No activity”.
For `Cc1ccccc1-c1cnccc1C(=O)Nc1cc(C)c2c(c1)CCC(=O)N2` [Compound 15, N-(8-methyl-2-oxo-1,2,3,4-tetrahydroquinolin-6-yl)-3-(o-tolyl)isonicotinamide], the IC50 at hALDH1a2 and on mALDH1a2 was over 5000 nM each time. Moreover, the “hAldh1a3 IC50” value at hALDH1a3 is given as “No activity”. For the same molecule, the “mAldh1a3 IC50” value on mALDH1a3 is reported as “No activity”.
Consider `Cc1cc(NC(=O)c2ccncc2-c2ccccc2C#N)cc2c1NC(=O)CC2` [Compound 16], for which the IC50 at hALDH1a2 and at mALDH1a2 was over 5000 nM throughout. The “hAldh1a3 IC50” value on hALDH1a3 was “No activity”. Further, the “mAldh1a3 IC50” value at mALDH1a3 is “No activity”.
Take `Cc1cc(NC(=O)c2ccncc2-c2cccc(O)c2)cc2c1NC(=O)CC2` [Compound 18]: the IC50 on hALDH1a2 and at mALDH1a2 was 1000 to 5000 nM each time. Further, on hALDH1a3, the “hAldh1a3 IC50” value is reported as “No activity”. The “mAldh1a3 IC50” value on mALDH1a3 is “No activity”.
With `Cc1cc(NC(=O)c2ccncc2-c2ccc(O)cc2)cc2c1NC(=O)CC2` [Compound 19], the IC50 at hALDH1a2 and on mALDH1a2 was 1000 to 5000 nM throughout. Besides, at hALDH1a3, the “hAldh1a3 IC50” value is listed as “No activity”. Further, the “mAldh1a3 IC50” value on mALDH1a3 is “No activity”.
With `Cc1c(F)c(NC(=O)c2scnc2CC(F)(F)F)cc2c1NC(=O)CC2` [Compound 78], the 50% inhibitory concentration (IC50) at hALDH1a2 was in the range of 250 to 1000 nM; at mALDH1a2, 1000 to 5000 nM.
In the same order, the values of `CCc1ncsc1C(=O)Nc1cc2c(c(C)c1F)NC(=O)CC2` [Compound 79] are 250 to 1000 nM and 250 to 1000 nM.
In the same order, the values of `Cc1c(Cl)c(NC(=O)c2scnc2CC(F)(F)F)cc2c1NC(=O)CC2` [Compound 80] are 100 to 250 nM and 250 to 1000 nM.
In the same order, the values of `CCc1ncsc1C(=O)Nc1cc2c(c(C)c1Cl)NC(=O)CC2` [Compound 81] are 250 to 1000 nM and 250 to 1000 nM.
For `CCc1ncsc1C(=O)Nc1cc(Cl)c2c(c1)CCC(=O)N2` [Compound 83], the concentration for half-maximal inhibition (IC50) on hALDH1a2 and at mALDH1a2 was under 100 nM each time.
